The subject of data set [1] is Rattus norvegicus. The data set is described as follows: Neuromuscular block activity in propofol-induced anesthetized Sprague-Dawley rat model assessed as inhibition of twitch by measuring twitch intensity of quadriceps muscle at 0.3 mg/kg, iv administered as bolus dose by TOF watch monitor analysis relative to control. The data set is classed as functional.
The test system of data set [2] is Rattus norvegicus. The data set is described as follows: Neuromuscular block activity in propofol-induced anesthetized iv dosed Sprague-Dawley rat model assessed as minimum dose for complete neuromuscular block. Conditions: read-out: MED. Format: functional.
Data set [3] can be described thus: Solubility of compound in water. Format: physicochemical.
For data set [4], the species on record is Rattus norvegicus. The data set is described as follows: Recovery of Pan-induced neuromuscular block in Sprague-Dawley rat assessed as […] ratio (TOFr) <= 25% by measuring recovery time. Format: functional.
The subject of data set [5] is Rattus norvegicus. The data set is described as follows: Neuromuscular block activity in propofol-induced anesthetized Sprague-Dawley rat model assessed as reduction in twitch inhibition by measuring twitch intensity of quadriceps muscle at 0.3 mg/kg, iv administered as bolus dose by TOF watch monitor analysis. The data set is classed as functional, organism-based.

In data set [6] the test system is Rattus norvegicus. Put plainly: Neuromuscular block activity in propofol-induced anesthetized Sprague-Dawley rat model assessed as inhibition of twitch by measuring twitch intensity of quadriceps muscle at 0.04 mg/kg, iv administered as bolus dose by TOF watch monitor analysis relative to control. The data set is classed as functional.
Data set [7] has as its system Rattus norvegicus. The data set is described as follows: Neuromuscular block activity in propofol-induced anesthetized Sprague-Dawley rat model assessed as recovery time at 0.04 mg/kg, iv. The data set is classed as functional.
In data set [8] the test system is Rattus norvegicus. Put plainly: Neuromuscular block activity in propofol-induced anesthetized Sprague-Dawley rat model assessed as onset time required for twitch reduction at 0.04 mg/kg, iv. Format: functional.
The subject of data set [9] is Rattus norvegicus. Put plainly: Neuromuscular block activity in propofol-induced anesthetized Sprague-Dawley rat model assessed as inhibition of twitch by measuring twitch intensity of quadriceps muscle at 0.5 mg/kg, iv administered as bolus dose by TOF watch monitor analysis relative to control. Format: functional.
The test system of data set [10] is Rattus norvegicus. The data set is described as follows: Neuromuscular block activity in propofol-induced anesthetized Sprague-Dawley rat model assessed as inhibition of twitch by measuring twitch intensity of quadriceps muscle at 5 mg/kg, iv administered as bolus dose by TOF watch monitor analysis relative to control. Format: functional.
In data set [11] the test system is Rattus norvegicus. The data set is described as follows: Neuromuscular block activity in propofol-induced anesthetized Sprague-Dawley rat model assessed as time duration of 0 to 25 percent recovery indices at 0.04 mg/kg, iv. Format: functional.
Data set [12] relates to Rattus norvegicus. Put plainly: Neuromuscular block activity in propofol-induced anesthetized Sprague-Dawley rat model assessed as inhibition of twitch by measuring twitch intensity of quadriceps muscle at 0.6 mg/kg, iv administered as bolus dose by TOF watch monitor analysis relative to control. Format: functional.

The source made the active and inactive calls. The calls are words filed in the database; no cut-off is given here.

On to `[Cl-].[Cl-].[Cl-].[Cl-].c1cc2cc(c1)Cn1cc[n+](c1)Cc1ccc(cc1)-c1ccc(cc1)C[n+]1ccn(c1)Cc1cccc(c1)Cn1cc[n+](c1)Cc1ccc(cc1)-c1ccc(cc1)C[n+]1ccn(c1)C2`, for which the inhibition in vivo at 0.3 mg/kg in the data set on Rattus norvegicus [1] stood at 43%. For the same molecule, the minimal effective dose in the data set on Rattus norvegicus [2] came out at 0.6 mg/kg. Further, the solubility in [3] was ≥ 50 mM.

For the molecule `[Cl-].[Cl-].[Cl-].[Cl-].c1cc2ccc1Cn1cc[n+](c1)Cc1ccc(cc1)Oc1ccc(cc1)C[n+]1ccn(c1)Cc1ccc(cc1)Cn1cc[n+](c1)Cc1ccc(cc1)Oc1ccc(cc1)C[n+]1ccn(c1)C2`, in the data set on Rattus norvegicus [1], the inhibition in vivo at 0.3 mg/kg is 2%. The minimal effective dose in the data set with Rattus norvegicus [2] amounted to 0.9 mg/kg. Also, the Time in the data set listed under Rattus norvegicus [4] came to 30 min. Also, the solubility in data set [3] was ≥ 50 mM.

`O=C(O)c1cc2cc(c1)Cn1cc[n+](c1)Cc1ccc(cc1)-c1ccc(cc1)C[n+]1ccn(c1)Cc1cc(cc(C(=O)O)c1)Cn1cc[n+](c1)Cc1ccc(cc1)-c1ccc(cc1)C[n+]1ccn(c1)C2.[Cl-].[Cl-].[Cl-].[Cl-]`: the outcome in the data set with Rattus norvegicus [5] was inactive. In the data set on Rattus norvegicus [1], the inhibition in vivo at 0.3 mg/kg turned out to be 0%. Also, the minimal effective dose in the data set on Rattus norvegicus [2] was 1.2 mg/kg. In addition, in data set [3], the solubility was ≥ 50 mM.

For the molecule `[Cl-].[Cl-].[Cl-].[Cl-].c1cc2cc(c1)Cn1cc[n+](c1)Cc1ccc(cc1)Oc1ccc(cc1)C[n+]1ccn(c1)Cc1cccc(c1)Cn1cc[n+](c1)Cc1ccc(cc1)Oc1ccc(cc1)C[n+]1ccn(c1)C2`, the inhibition in vivo at 0.3 mg/kg in the data set with Rattus norvegicus [1] was found to be 100%. The minimal effective dose in the data set with Rattus norvegicus [2] amounted to 0.16 mg/kg. The solubility in [3] is ≥ 50 mM.

With `Cc1n2cc[n+]1Cc1ccc(cc1)Oc1ccc(cc1)C[n+]1ccn(c1C)Cc1cccc(c1)Cn1cc[n+](c1C)Cc1ccc(cc1)Oc1ccc(cc1)C[n+]1ccn(c1C)Cc1cccc(c1)C2.[Cl-].[Cl-].[Cl-].[Cl-]`, the inhibition in vivo at 0.04 mg/kg in the data set on Rattus norvegicus [6] was determined as 54%. Further, in the data set with Rattus norvegicus [1], the inhibition in vivo at 0.3 mg/kg stood at 100%. In addition, the minimal effective dose with Rattus norvegicus [2] is 0.1 mg/kg. In data set [3], the solubility is ≥ 50 mM.

Take `COC(=O)c1cc2cc(c1)Cn1cc[n+](c1)Cc1ccc(cc1)Oc1ccc(cc1)C[n+]1ccn(c1)Cc1cc(cc(C(=O)OC)c1)Cn1cc[n+](c1)Cc1ccc(cc1)Oc1ccc(cc1)C[n+]1ccn(c1)C2.[Cl-].[Cl-].[Cl-].[Cl-]`: the inhibition in vivo at 0.3 mg/kg in the data set on Rattus norvegicus [1] turned out to be 50%. Also, the minimal effective dose in the data set on Rattus norvegicus [2] stood at 0.6 mg/kg. The solubility in [3] was ≥ 50 mM.

`O=C(O)c1cc2cc(c1)Cn1cc[n+](c1)Cc1ccc(cc1)Oc1ccc(cc1)C[n+]1ccn(c1)Cc1cc(cc(C(=O)O)c1)Cn1cc[n+](c1)Cc1ccc(cc1)Oc1ccc(cc1)C[n+]1ccn(c1)C2.[Cl-].[Cl-].[Cl-].[Cl-]`: in the data set on Rattus norvegicus [5], the result was inactive. Besides, the inhibition in vivo at 0.3 mg/kg with Rattus norvegicus [1] amounted to 0%. The minimal effective dose in the data set with Rattus norvegicus [2] was found to be 1 mg/kg. For the same molecule, the solubility in data set [3] is ≥ 50 mM.

For the molecule `Cc1n2cc[n+]1Cc1ccc(cc1)Oc1ccc(cc1)C[n+]1ccn(c1C)Cn1cc[n+](c1C)Cc1ccc(cc1)Oc1ccc(cc1)C[n+]1ccn(c1C)C2.[Cl-].[Cl-].[Cl-].[Cl-]`, the inhibition in vivo at 0.04 mg/kg in the data set on Rattus norvegicus [6] came out at 63%. The solubility in data set [3] was ≥ 50 mM.

With `CCc1n2cc[n+]1Cc1ccc(cc1)Oc1ccc(cc1)C[n+]1ccn(c1CC)CCCCCn1cc[n+](c1CC)Cc1ccc(cc1)Oc1ccc(cc1)C[n+]1ccn(c1CC)CCCCC2.[Cl-].[Cl-].[Cl-].[Cl-]`, in the data set on Rattus norvegicus [6], the inhibition in vivo at 0.04 mg/kg is 100%. Moreover, the Time in the data set with Rattus norvegicus [7] was 13 min; in the data set on Rattus norvegicus [8], 222 s. Further, the solubility in [3] was ≥ 50 mM.

Take `Cc1n2cc[n+]1Cc1ccc(cc1)Oc1ccc(cc1)C[n+]1ccn(c1C)CCCCCn1cc[n+](c1C)Cc1ccc(cc1)Oc1ccc(cc1)C[n+]1ccn(c1C)CCCCC2.[Cl-].[Cl-].[Cl-].[Cl-]`: in the data set on Rattus norvegicus [6], the inhibition in vivo at 0.04 mg/kg stood at 58%. In addition, the solubility in data set [3] was ≥ 50 mM.

Regarding `Cc1n2cc[n+]1Cc1cccc(c1)C[n+]1ccn(c1C)CCCn1cc[n+](c1C)Cc1cccc(c1)C[n+]1ccn(c1C)CCC2`, the inhibition in vivo at 0.04 mg/kg with Rattus norvegicus [6] amounted to 0%. For the same molecule, in the data set with Rattus norvegicus [9], the inhibition in vivo at 0.5 mg/kg was 11%. In addition, the inhibition in vivo at 5 mg/kg with Rattus norvegicus [10] amounted to 100%.

For `[Cl-].[Cl-].[Cl-].[Cl-].c1cc2ccc1Cc1ccc(cc1)C[n+]1ccn(c1)Cc1ccc(o1)Cn1cc[n+](c1)Cc1ccc(cc1)Cc1ccc(cc1)C[n+]1ccn(c1)Cc1ccc(o1)Cn1cc[n+](c1)C2`, in the data set on Rattus norvegicus [5], the outcome was inactive. In addition, the inhibition in vivo at 0.3 mg/kg in the data set on Rattus norvegicus [1] was determined as 0%. The minimal effective dose in the data set with Rattus norvegicus [2] was found to be 5 mg/kg. Moreover, in data set [3], the solubility was ≥ 50 mM.

As to `[Cl-].[Cl-].[Cl-].[Cl-].c1cc2ccc1C[n+]1ccn(c1)CCCCCn1cc[n+](c1)Cc1ccc(cc1)Oc1ccc(cc1)C[n+]1ccn(c1)CCCCCn1cc[n+](c1)Cc1ccc(cc1)O2`, in the data set on Rattus norvegicus [6], the inhibition in vivo at 0.04 mg/kg came to 100%. For the same molecule, the Time is on record as 31 min in the data set on Rattus norvegicus [7], 41 min with Rattus norvegicus [11] and 138 s in the data set on Rattus norvegicus [8]. For the same molecule, the solubility in data set [3] was ≥ 50 mM.

As for `Cc1n2cc[n+]1Cc1ccc(cc1)Oc1ccc(cc1)C[n+]1ccn(c1C)CCCCCCCn1cc[n+](c1C)Cc1ccc(cc1)Oc1ccc(cc1)C[n+]1ccn(c1C)CCCCCCC2.[Cl-].[Cl-].[Cl-].[Cl-]`, the inhibition in vivo at 0.04 mg/kg in the data set with Rattus norvegicus [6] is 100%. Also, the Time with Rattus norvegicus [7] is 18 min; in the data set on Rattus norvegicus [11], 61 min; with Rattus norvegicus [8], 498 s. For the same molecule, in data set [3], the solubility is ≥ 50 mM.

For `[Cl-].[Cl-].[Cl-].[Cl-].c1cc2ccc1Cc1ccc(cc1)C[n+]1ccn(c1)Cc1ccc(cc1)Cn1cc[n+](c1)Cc1ccc(cc1)Cc1ccc(cc1)C[n+]1ccn(c1)Cc1ccc(cc1)Cn1cc[n+](c1)C2`, the inhibition in vivo at 0.3 mg/kg with Rattus norvegicus [1] was 17%. The minimal effective dose in the data set with Rattus norvegicus [2] was 1.8 mg/kg. The Time in the data set listed under Rattus norvegicus [4] came out at 32 min. Also, in data set [3], the solubility is ≥ 50 mM.

As to `[Cl-].[Cl-].[Cl-].[Cl-].c1cc2cc(c1)Cn1cc[n+](c1)Cc1ccc(cc1)Cc1ccc(cc1)C[n+]1ccn(c1)Cc1cccc(c1)Cn1cc[n+](c1)Cc1ccc(cc1)Cc1ccc(cc1)C[n+]1ccn(c1)C2`, the inhibition in vivo at 0.3 mg/kg with Rattus norvegicus [1] was 15%. Besides, the minimal effective dose in the data set on Rattus norvegicus [2] was 2 mg/kg. Moreover, in data set [3], the solubility was ≥ 50 mM.

Consider `COC(=O)c1cc2cc(c1)Cn1cc[n+](c1)Cc1ccc(cc1)-c1ccc(cc1)C[n+]1ccn(c1)Cc1cc(cc(C(=O)OC)c1)Cn1cc[n+](c1)Cc1ccc(cc1)-c1ccc(cc1)C[n+]1ccn(c1)C2.[Cl-].[Cl-].[Cl-].[Cl-]`, for which the inhibition in vivo at 0.3 mg/kg in the data set with Rattus norvegicus [1] worked out at 5%. Also, the minimal effective dose in the data set on Rattus norvegicus [2] is 1.5 mg/kg. The solubility in [3] is ≥ 50 mM.

With `Cc1n2cc[n+]1Cc1ccc(cc1)Oc1ccc(cc1)C[n+]1ccn(c1C)CCCCn1cc[n+](c1C)Cc1ccc(cc1)Oc1ccc(cc1)C[n+]1ccn(c1C)CCCC2.[Cl-].[Cl-].[Cl-].[Cl-]`, the inhibition in vivo at 0.04 mg/kg with Rattus norvegicus [6] was 100%. The Time in the data set with Rattus norvegicus [7] was determined as 16 min; with Rattus norvegicus [11], 47 min; in the data set with Rattus norvegicus [8], 102 s. In data set [3], the solubility is ≥ 50 mM.

With `c1c[n+]2ccc1CCCc1cc[n+](cc1)Cc1ccc(cc1)Oc1ccc(cc1)C[n+]1ccc(cc1)CCCc1cc[n+](cc1)Cc1ccc(cc1)Oc1ccc(cc1)C2`, in the data set on Rattus norvegicus [6], the inhibition in vivo at 0.04 mg/kg came to 0%. In addition, the inhibition in vivo at 0.3 mg/kg in the data set on Rattus norvegicus [1] was 38%. Besides, the inhibition in vivo at 0.6 mg/kg in the data set with Rattus norvegicus [12] was determined as 100%.

For `[Cl-].[Cl-].[Cl-].[Cl-].c1ccc2c(c1)n1c[n+]2Cc2ccc(cc2)Oc2ccc(cc2)C[n+]2cn(c3ccccc32)CCCCCn2c[n+](c3ccccc32)Cc2ccc(cc2)Oc2ccc(cc2)C[n+]2cn(c3ccccc32)CCCCC1`, the inhibition in vivo at 0.04 mg/kg with Rattus norvegicus [6] was 0%. Also, the Time in the data set with Rattus norvegicus [11] came out at 27 min. The solubility in data set [3] was ~0.5 mM.

Regarding `[Cl-].[Cl-].[Cl-].[Cl-].c1cc2ccc1Cn1cc[n+](c1)Cc1ccc(cc1)-c1ccc(cc1)C[n+]1ccn(c1)Cc1ccc(cc1)Cn1cc[n+](c1)Cc1ccc(cc1)-c1ccc(cc1)C[n+]1ccn(c1)C2`, the inhibition in vivo at 0.3 mg/kg in the data set with Rattus norvegicus [1] is 3%. The minimal effective dose in the data set with Rattus norvegicus [2] turned out to be 1.2 mg/kg. For the same molecule, the Time in the data set filed under Rattus norvegicus [4] is given as 36 min. Besides, the solubility in data set [3] was ≥ 50 mM.

On to `Cc1n2cc[n+]1Cc1ccc(cc1)C[n+]1ccn(c1C)CCCn1cc[n+](c1C)Cc1ccc(cc1)C[n+]1ccn(c1C)CCC2`, for which the inhibition in vivo at 0.04 mg/kg in the data set with Rattus norvegicus [6] worked out at 0%. In the data set on Rattus norvegicus [9], the inhibition in vivo at 0.5 mg/kg stood at 0%. Also, the inhibition in vivo at 5 mg/kg in the data set with Rattus norvegicus [10] is 100%.
